Here are results for five compounds from patent US6420348B1, “Pectic polysaccharides purified from Angelica gigas nakai and purification method and use as immunostimulating agent thereof” (Korea Institute of Science and Technology, priority 1997, dated 2002).

In series [1] the test system is B cell-depleted cell group (T cells). The series is described as follows: mitogenicity comparison, 3H-thymidine incorporation. The class given is cell-based, mice. The note with it: 5 μg/ml. The source says: (§1) In this example, the action mode of angelan was compared with those of other lymphocyte mitogens in three different lymphocyte groups. Lipopolysaccharide (LPS) was employed to induce the proliferation of B cell while phytohemagglutinin (PHA) and concanavalin A (Con A) were used as T cell mitogens. As a comitogen, that is, in order to induce both T-cells and B-cells to proliferate, pokeweed mitogen (PWM) was used.
(§2) Angelan was given to three different cell groups: total cell group including T- and B-cells, T cell-depleted cell group, and B cell-depleted cell group. Each cell groups were treated with angelan or one of LPS, PWM, Con A and PHA. After incubation, lymphocyte proliferation was measured by the incorporation of 3H-thymidine into the cellular DNA.

Series [2] concerns T cell-depleted cell group (B cells). The description is as above. It counts as cell-based, mice. As to conditions: for Proliferation B cells: 5 μg/ml; for mitogenicity (in words): B cell-enriched group.
Source text: as §1, §2

Series [3] deals with total cell group including T- and B-cells. The series is described as above. As to conditions: 5 μg/ml. The class given is cell-based, mice.
Source text: as §1, §2

The next series deals with B16F10 melanoma. The experiment in a line: host resistance model to syngeneic tumors. The class given is in vivo, BDF1 mice. The note with it: for Viability: relative to non-treated mice; for Survival Animals (10 in total): survived 60 days. As for the experimental part: The host resistance model to syngeneic tumors was prepared by the intraperitoneal transplantation of B16F10 melanoma to BDF1 mice. After transplantation, angelan was administered at a dose of 100 mg/kg/day while adriamicin was administered at a dose of 0.1 to 0.3 mg/kg. The survival rates of the treated mice was based on the viability of non-treated mice, and the number of the animals which survived for 60 days after the implantation, was counted.

For another series, the system named is B16F10 cancer cells. The experiment in a line: direct cytotoxicity on cancer cells. As to conditions: for survival number of treated cells as ratio to non-treated cells: 2 days. It counts as cell-based. As for the experimental part:
Whether the anticancer effect of angelan came from specific mediation by cytotoxic T cells or from nonspecific mediation by macrophages and natural killer cells, was proven as follows. B16F10 cancer cells were treated with angelan and adriamicin at a dose of 0.3 to 30 μg/ml. After incubation for 2 days, the number of the survived cells was countered. The survival number of the treated cells was expressed as a ratio compared with the number of the non-treated cells.

For the compound Lipopolysaccharide [LPS], in series [1], the “Proliferation T cells” value is given as 869 cpm/200,000 cells. Besides, in series [2], the “Proliferation B cells” value was 11550 cpm/200,000 cells and the “mitogenicity (in words)” value is “had an effect”. In addition, the “Proliferation B/T cells” value in series [3] is on record as 11665 cpm/200,000 cells.

In the case of pokeweed mitogen [PWM], the “Proliferation T cells” value in series [1] is recorded as 12171 cpm/200,000 cells. For the same compound, in series [2], the “Proliferation B cells” value was 358 cpm/200,000 cells and the “mitogenicity (in words)” value is given as “had an effect”. Further, the “Proliferation B/T cells” value in series [3] is reported as 10212 cpm/200,000 cells.

As for concanavalin A [Con A], in series [1], the “Proliferation T cells” value is 3929 cpm/200,000 cells. The “Proliferation B cells” value in series [2] is listed as 6566 cpm/200,000 cells. Also, in series [3], the “Proliferation B/T cells” value is reported as 6014 cpm/200,000 cells.

For phytohemagglutinin [PHA], the “Proliferation T cells” value in series [1] is reported as 3127 cpm/200,000 cells. For the same compound, in series [2], the “Proliferation B cells” value was 446 cpm/200,000 cells. The “Proliferation B/T cells” value in series [3] was 1049 cpm/200,000 cells.

Take `COc1cccc2c1C(=O)c1c(O)c3c(c(O)c1C2=O)C[C@@](O)(C(=O)CO)C[C@@H]3O[C@H]1C[C@H](N)[C@H](O)[C@H](C)O1` [Adriamicin]: the Viability was 195% in the series on B16F10 melanoma (adriamicin 0.1 mg/kg) and >240% with B16F10 melanoma (adriamicin 0.3 mg/kg). The “Survival Animals (10 in total)” value in the series with B16F10 melanoma (adriamicin 0.1 mg/kg) was 0; in the series with B16F10 melanoma (adriamicin 0.3 mg/kg), 2. Further, in the series on B16F10 cancer cells, the “cytotoxicity on cancer cells (in words)” value was “showed cytotoxicity on cancer cells”. The “survival number of treated cells as ratio to non-treated cells” value is 56 with B16F10 cancer cells (0.3 μg/ml); 29 in the series on B16F10 cancer cells (1 μg/ml); 9 in the series with B16F10 cancer cells (3 μg/ml); 0 in the series with B16F10 cancer cells (10 μg/ml); 0 with B16F10 cancer cells (30 μg/ml).
